# Measured values: paper PMC5473807, “Distribution and kinetics of the Kv1.3-blocking peptide HsTX1[R14A] in experimental rats” (Scientific Reports, 2017)
# Target: T1, mKv1.3 (Mus musculus, UniProt P16390)
# T1 construct: expressed in transfected cells
# Assay: Whole-cell patch-clamp block of Kv1.3 currents
# Type: cell-based
# Conditions: L929 mouse fibroblasts stably expressing mKv1.3, room temperature, peak current at 40 mV, Hill fit, n = 3 cells per concentration, read-out: IC50 against Kv1.3
# Experimental: L929 mouse fibroblast cells stably expressing mKv1.3[32] were gifts from Dr. K. George Chandy (University of California, Irvine). They were maintained in DMEM medium (Invitrogen, Carlsbad, CA) supplemented with 100 IU/mL penicillin, […] streptomycin, 2 mM L-glutamine, 10% heat-inactivated foetal bovine serum, and 0.5 mg/mL G418 (EMD Chemicals, Gibbstown, NJ).
# Electrophysiology experiments were conducted at room temperature in the whole-cell configuration of the patch-clamp technique on a Port-a-Patch setup (Nanion, North Brunswick, NJ) linked to a HEKA EPC10USB amplifier (HEKA Instruments, Bellmore, NY). A holding potential of −80 mV was used for all recordings. Pipette resistances averaged 2.0 MΩ when filled with internal solution containing (in mM): 145 KF, 10 HEPES, 10 EGTA, and 2 MgCl2, pH 7.2, 290 mOsm. Kv currents were elicited every 30 s by 200-ms depolarising pulses from a holding potential of −80 mV to 40 mV. Kv1.3 currents were recorded in normal Ringer solution containing (in mM): 160 NaCl, 4.5 KCl, 2 CaCl2, 1 MgCl2, and 10 HEPES, pH 7.2, 300 mOsm. IC50 values and Hill coefficients were determined by fitting the Hill equation to the reduction of peak current by the drug at 40 mV.
# Figure S2. […] (a) Whole-cell Kv1.3 currents measured by whole-cell patch-clamp in stably transfected L929 fibroblasts before (control) and after perfusion of 10 pM and 100 nM NOTA-HsTX1[R14A]. […]
# T1 sequence (P16390 whole entry): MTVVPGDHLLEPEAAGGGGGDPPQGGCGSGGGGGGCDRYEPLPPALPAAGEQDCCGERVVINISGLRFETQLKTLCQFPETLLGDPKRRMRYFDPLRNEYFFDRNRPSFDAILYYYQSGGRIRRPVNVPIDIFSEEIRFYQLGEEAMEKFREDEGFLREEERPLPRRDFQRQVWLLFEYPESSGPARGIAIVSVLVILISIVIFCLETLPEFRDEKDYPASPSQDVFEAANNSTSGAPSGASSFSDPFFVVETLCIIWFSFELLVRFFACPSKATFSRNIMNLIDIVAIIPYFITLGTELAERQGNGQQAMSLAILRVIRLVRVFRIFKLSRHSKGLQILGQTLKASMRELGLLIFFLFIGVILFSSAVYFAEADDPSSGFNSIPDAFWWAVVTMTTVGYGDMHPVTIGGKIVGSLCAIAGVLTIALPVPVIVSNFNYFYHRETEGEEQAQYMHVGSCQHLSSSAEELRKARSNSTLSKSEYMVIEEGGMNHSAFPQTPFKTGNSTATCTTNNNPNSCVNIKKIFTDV
smiles,measurement,value
CSCC[C@@H]1NC(=O)[C@@H]2CSSC[C@H](NC(=O)[C@H](CO)NC(=O)[C@H](C)NC(=O)COCCOCCNC(=O)CN3CCN(CC(=O)O)CCN(CC(=O)O)CC3)C(=O)N[C@@H](CCCNC(=N)N)C(=O)N[C@@H]([C@@H](C)O)C(=O)N3CCC[C@H]3C(=O)N[C@@H](CCCCN)C(=O)N[C@@H](CC(=O)O)C(=O)N[C@H]3CSSC[C@H](NC(=O)[C@H](CCCCN)NC(=O)[C@H](CCCNC(=N)N)NC(=O)[C@H](CC(N)=O)NC1=O)C(=O)N[C@@H](CCCCN)C(=O)N[C@H]1CSSC[C@H](NC(=O)[C@@H]4CCCN4C(=O)[C@H](CC(=O)O)NC(=O)[C@H](C)NC3=O)C(=O)N[C@@H](C)C(=O)N[C@@H](CCCCN)C(=O)N[C@@H](CCC(=O)O)C(=O)N[C@@H]([C@@H](C)O)C(=O)NCC(=O)N[C@@H](CSSC[C@@H](C(N)=O)NC(=O)[C@H](CCCNC(=N)N)NC(=O)[C@H](CC(N)=O)NC1=O)C(=O)N1CCC[C@H]1C(=O)N[C@@H](Cc1ccc(O)cc1)C(=O)NCC(=O)N[C@@H](CCCCN)C(=O)N2 [NOTA-HsTX1[R14A]],IC50,0.068 ± 0.012 nM
